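Each compound was tested at five concentrations against cells in 96-well plates for 48 hours. TGI marks complete inhibition of growth.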
Key:
Assay in all cases: DTP human tumour cell line panel, 48 h
[1] = test system: A498 renal
[2] = test system: CCRF-CEM leukemia
[3] = test system: HCT-116 colon
[4] = test system: HCT-15 colon
[5] = test system: K-562 leukemia
[6] = test system: KM12 colon
[7] = test system: M14 melanoma
[8] = test system: MALME-3M melanoma
[9] = test system: NCI-H226 lung
[10] = test system: NCI-H522 lung
[11] = test system: OVCAR-3 ovarian
[12] = test system: OVCAR-4 ovarian
[13] = test system: OVCAR-8 ovarian
[14] = test system: SK-MEL-2 melanoma
[15] = test system: SN12C renal
[16] = test system: SNB-75 CNS
[17] = test system: UACC-257 melanoma
[18] = test system: RPMI-8226 leukemia

CCOC(=O)c1cn2c([nH]c3ccccc32)c(C#N)c1=O
TGI [1]: > 100 µM
TGI [2]: > 100 µM
TGI [3]: > 100 µM
TGI [4]: > 100 µM
TGI [5]: > 100 µM
TGI [6]: > 100 µM
TGI [7]: > 100 µM
TGI [8]: > 100 µM
TGI [9]: > 100 µM
TGI [10]: > 100 µM
TGI [11]: > 100 µM
TGI [12]: > 100 µM
TGI [13]: > 100 µM
TGI [14]: > 100 µM
TGI [15]: > 100 µM
TGI [16]: > 100 µM
TGI [17]: > 100 µM

COC1=CC(=O)c2ccccc2C1(C)C1=NC(C)(C)CO1 (configuration not stated)
TGI [2]: > 100 µM
TGI [3]: > 100 µM
TGI [4]: > 100 µM
TGI [5]: > 100 µM
TGI [6]: > 100 µM
TGI [7]: > 100 µM
TGI [8]: > 100 µM
TGI [9]: > 100 µM
TGI [10]: > 100 µM
TGI [11]: > 100 µM
TGI [12]: > 100 µM
TGI [13]: > 100 µM
TGI [18]: > 100 µM
TGI [14]: > 100 µM
TGI [15]: > 100 µM
TGI [16]: > 100 µM
TGI [17]: > 100 µM

CCOc1ccc(NC(=O)CCC(=O)NN)cc1
TGI [2]: > 100 µM
TGI [4]: > 100 µM
TGI [5]: > 100 µM
TGI [6]: > 100 µM
TGI [7]: > 100 µM
TGI [8]: > 100 µM
TGI [9]: > 100 µM
TGI [10]: > 100 µM
TGI [11]: > 100 µM
TGI [12]: > 100 µM
TGI [13]: > 100 µM
TGI [18]: > 100 µM
TGI [14]: > 100 µM
TGI [15]: > 100 µM
TGI [16]: > 100 µM
TGI [17]: > 100 µM

O=C(/C=C/c1ccc(Cl)c(Cl)c1)C1CCC(Cl)CC1 (configuration not stated)
TGI [1]: 83.1 µM
TGI [3]: 25.1 µM
TGI [4]: 35.1 µM
TGI [6]: 46.1 µM
TGI [7]: 33.4 µM
TGI [8]: 41.1 µM
TGI [9]: 94.8 µM
TGI [10]: 32.9 µM
TGI [11]: 28.4 µM
TGI [12]: 39.6 µM
TGI [13]: 38.5 µM
TGI [18]: 21 µM
TGI [15]: 32.7 µM
TGI [16]: 44.3 µM
TGI [17]: 35.1 µM

N#Cc1ccccc1Nc1ccccc1S
TGI [1]: > 100 µM
TGI [2]: 77.4 µM
TGI [5]: > 100 µM
TGI [6]: > 100 µM
TGI [8]: 80.3 µM
TGI [9]: 43.9 µM
TGI [12]: > 100 µM
TGI [13]: 94 µM
TGI [14]: > 100 µM
TGI [15]: 97.1 µM
TGI [17]: > 100 µM

COC(=O)C(=O)C1CCCCC(C2=NC3NN=C(N)N3C2=O)C1=O (configuration not stated)
TGI [1]: > 100 µM
TGI [2]: > 100 µM
TGI [3]: > 100 µM
TGI [4]: > 100 µM
TGI [5]: > 100 µM
TGI [6]: > 100 µM
TGI [7]: > 100 µM
TGI [8]: > 100 µM
TGI [9]: > 100 µM
TGI [10]: > 100 µM
TGI [11]: > 100 µM
TGI [12]: > 100 µM
TGI [13]: > 100 µM
TGI [14]: > 100 µM
TGI [15]: > 100 µM
TGI [16]: > 100 µM
TGI [17]: > 100 µM

COc1cc(C2C(Cl)C(=O)N2NC(=O)Cc2ccccc2)ccc1O (configuration not stated)
TGI [2]: > 100 µM
TGI [3]: > 100 µM
TGI [4]: > 100 µM
TGI [5]: > 100 µM
TGI [6]: > 100 µM
TGI [7]: > 100 µM
TGI [8]: > 100 µM
TGI [9]: > 100 µM
TGI [10]: 56.3 µM
TGI [11]: > 100 µM
TGI [12]: > 100 µM
TGI [13]: > 100 µM
TGI [18]: > 100 µM
TGI [14]: > 100 µM
TGI [15]: > 100 µM
TGI [16]: > 100 µM
TGI [17]: > 100 µM

CC(C)(C)C(=O)[CH-]C(=O)C(F)(F)C(F)(F)C(F)(F)F.CC(C)(C)C(=O)[CH-]C(=O)C(F)(F)C(F)(F)C(F)(F)F.[O-]CC1OC(O)C(O)C(O)C1O.[O-]CC1OC(O)C(O)C(O)C1O.[Ti+4]
TGI [2]: > 100 µM
TGI [3]: > 100 µM
TGI [4]: > 100 µM
TGI [5]: > 100 µM
TGI [6]: > 100 µM
TGI [7]: > 100 µM
TGI [8]: > 100 µM
TGI [9]: > 100 µM
TGI [11]: > 100 µM
TGI [12]: > 100 µM
TGI [13]: > 100 µM
TGI [18]: > 100 µM
TGI [14]: > 100 µM
TGI [15]: > 100 µM
TGI [17]: > 100 µM

C=C1CC(C/C=C(\C)CC2CC(=C)C(=O)O2)OC1=O (configuration not stated)
TGI [1]: > 100 µM
TGI [2]: > 100 µM
TGI [3]: > 100 µM
TGI [4]: > 100 µM
TGI [5]: > 100 µM
TGI [6]: > 100 µM
TGI [7]: > 100 µM
TGI [8]: > 100 µM
TGI [11]: > 100 µM
TGI [12]: > 100 µM
TGI [13]: > 100 µM
TGI [14]: > 100 µM
TGI [15]: > 100 µM
TGI [16]: > 100 µM
TGI [17]: > 100 µM

COc1cccc(/C=C2\C(=O)N(C(=O)Cc3ccccc3)N=C2C)c1
TGI [2]: > 100 µM
TGI [3]: > 100 µM
TGI [4]: > 100 µM
TGI [5]: > 100 µM
TGI [6]: > 100 µM
TGI [7]: > 100 µM
TGI [8]: > 100 µM
TGI [9]: > 100 µM
TGI [10]: > 100 µM
TGI [11]: > 100 µM
TGI [12]: > 100 µM
TGI [13]: > 100 µM
TGI [18]: > 100 µM
TGI [14]: > 100 µM
TGI [15]: > 100 µM
TGI [16]: > 100 µM
TGI [17]: > 100 µM

CO[C@H](c1ccccc1)[C@H](C)N(C)c1ccc2ccccc2c1C1=NC(C)(C)CO1
TGI [2]: 48.9 µM
TGI [3]: 34.6 µM
TGI [4]: 29.7 µM
TGI [5]: 88.5 µM
TGI [6]: 40.2 µM
TGI [7]: 33.6 µM
TGI [8]: 33 µM
TGI [9]: 34.8 µM
TGI [10]: 19.4 µM
TGI [11]: 30.7 µM
TGI [13]: 26.7 µM
TGI [18]: 53.2 µM
TGI [14]: 29.7 µM
TGI [15]: 33.2 µM
TGI [16]: 32.4 µM
TGI [17]: 30.6 µM

O=C(Nc1cc(Cl)c(Cl)cc1Cl)C(=O)C(C(=O)c1ccc2ccccc2c1)C1OC(=O)c2ccccc21 (configuration not stated)
TGI [1]: 25.8 µM
TGI [3]: 34.6 µM
TGI [4]: 45.2 µM
TGI [6]: 31.2 µM
TGI [7]: 50.7 µM
TGI [8]: 30.9 µM
TGI [9]: 7.13 µM
TGI [10]: 26.9 µM
TGI [11]: 59.5 µM
TGI [13]: 23.6 µM
TGI [18]: > 100 µM
TGI [14]: 33.8 µM
TGI [15]: 42.5 µM
TGI [17]: 28.7 µM

Source: PubChem BioAssay (NCI)
